In series [1] the target is T1, glucagon fibrils (Homo sapiens, UniProt P01275).
T1 construct: fibrils of the peptide hormone glucagon
Description: Fibril titration with ThT (fluorescence). Conditions: 7.5 μg fibril material, single-site binding model. How it is done:
(§1) Fibril material (7.5 μg) was set up in 100 μL phosphate buffer in a 96 well half-area NBS plate (NUNC/Terma).

The test system of a further series is T2, FAS4 AD aggregates.
T2 construct: a mutated version of the FAS1-4 domain of TGFBIp
Description: Fibril titration with ThT (fluorescence). The class given is binding, human. Conditions: ThT mixed with FAS4 AD aggregates. The method, then: as §1

Series [2] concerns the target T3, C-36 fibrils (Homo sapiens, UniProt P01009).
T3 construct: the 36 residue C-terminal fragment of α1-antitrypsin (C-36)
Description: Determination of the binding capacity (dye depletion from supernatant). The settings on record: 2 nmol dye (20 µM) with 10 μg fibril material, one hour. How it is done: (§2) Control samples (without fibril material) were prepared similarly. Fibrils and fibril-bound ligand were pelleted by centrifugation (17,000 g, 30 min) and the supernatant (90 μL) was transferred to a 96 well half-area plate (Corning 3881).

In series [3] the target is T4, αSN fibrils (Homo sapiens, UniProt P37840). Described as above. The settings on record: 2 nmol dye (20 µM) with 10 μg fibril material, one hour. How it is done: as §2
Series [4] concerns the target T1, glucagon fibrils. The description is as above. The settings on record: 2 nmol dye (20 µM) with 10 μg fibril material, one hour. The method, then:
as §2

For series [5], the target named is T3, C-36 fibrils. Description: Fibril titration with ThT (fluorescence). The class given is binding. How it is done: as §1
In another series the target is Ab1 fibrils (Aβ(1–40)) (Homo sapiens, UniProt P05067). Kind of series: Fibril titration with ThT (fluorescence). In kind it is binding. The method, then: as §1
Series [6] addresses T4, αSN fibrils. Kind of series: Fibril titration with ThT (fluorescence). The class given is binding. The settings on record: titration experiment. How it is done:
as §1

A further series addresses Ab2 fibrils (Aβ(1–40)) (Homo sapiens, UniProt P05067). Description: Fibril titration with ThT (fluorescence). The class given is binding. How it is done: as §1
The test system of series [7] is chymotrypsinogen amorphous aggregates. Description: Fibril titration with ThT (fluorescence). In kind it is binding. Conditions: TCA-induced amorphous aggregates. The method, then: as §1
For series [8], the system named is T5, Ab1 fibrils.
T5 construct: Synthetic amyloid β peptide 1–40 was purchased from Caslo Aps (Lyngby, Denmark); purchased Caslo Aps (Lyngby, Denmark); host or cells: synthetic peptide
Description: Determination of the binding capacity (dye depletion from supernatant). Conditions: 2 nmol dye (20 µM) with 10 μg fibril material, one hour. Details: species or system human. How it is done:
as §2

The test system of series [9] is T6, Ab2 fibrils.
T6 construct: Two structurally distinct fibrils of the Aβ(1–40) peptide associated with AD
Described as above. Conditions: 2 nmol dye (20 µM) with 10 μg fibril material, one hour. Details: species or system human. How it is done: as §2

In series [10] the test system is T5, Ab1 fibrils. Description: Fibril incubation with CSF, quantitative MS/MS of bound proteins. In kind it is binding, human. Conditions: 4:1 w/w CSF protein:fibril.
The test system of series [11] is T6, Ab2 fibrils. The description is as above. The class given is binding, human. Conditions: 4:1 w/w CSF protein:fibril.
In series [12] the test system is fibril systems (Ab1, Ab2, glucagon, αSN and C-36). Kind of series: Fibril incubation with plasma, quantitative MS/MS, span over the fibril systems. In kind it is binding, human. How it is done: (§3) Plasma and CSF solutions were centrifuged (40,000 g, 20 min) to remove any aggregates. The protein concentration was determined using 280 nm absorbance assuming 1 Abs = 1 mg/mL. […] Control samples (without fibril material) were prepared similarly. All samples were incubated at room temperature for one hour under gentle agitation. Fibrils and fibril-bound proteins were pelleted by centrifugation at 17,000 g for 30 minutes. The supernatant (175 μL) was removed and the aggregate was re-suspended in 175 μL PBS and pelleted again before further preparation for gel analysis and spin-filter assisted digest for quantitative MS/MS.
The fibril-protein pellets were transferred to spin-filters (0.22 μm), washed twice in PBS (100 μL) and once in 1 M NaCl (100 μL). The fibrils and fibril-bound proteins were dissolved by one-hour incubation in 100 μL 6 M guanidinium chloride followed by elution from the spin-filter. […]
(§4) The micro-purified tryptic peptides were dissolved in 0.1% formic acid, injected and trapped on an in-house packed trap column (2 cm × 100 μm I.D) with RP ReproSil-Pur C18-AQ 3 μm resin (Dr. Maisch GmbH). […] Elution from the analytical column was performed with a linear gradient from 5% to 35% phase B (90% acetonitrile with 0.1% formic acid) over 20 min for protein identification and 50 min for quantitative analysis, respectively.
All samples were analysed three times, yielding nine MS/MS experiments for each fibril for both plasma and CSF. For the area-based extracted ion chromatogram (XIC) quantification, the acquisition method was set up as an information-dependent acquisition (IDA) experiment collecting up to 25 MS/MS spectra in each 1.6 sec cycle using an exclusion window of 6 sec. […]
XIC quantification was based on the average ion intensity of the three most abundant peptides for each protein. Only proteins quantified in at least four out of nine MS/MS experiments per fibril were included in the quantification. […]

Series [13] deals with T3, C-36 fibrils. Kind of series: Fibril incubation with plasma, quantitative MS/MS of bound proteins. In kind it is binding. Conditions: 50:1 w/w plasma protein:fibril.
Series [14] concerns the target T3, C-36 fibrils. Description: Fibril incubation with CSF, quantitative MS/MS of bound proteins. The settings on record: 4:1 w/w CSF protein:fibril. In kind it is binding.
Series [15] relates to fibril systems (Ab1, Ab2, glucagon, αSN and C-36). Description: Fibril incubation with CSF, quantitative MS/MS, span over the fibril systems. The class given is binding, human. The method, then: as §3, with “MS/MS. […]” for “MS/MS.”
as §4
All samples were analysed three times, yielding nine MS/MS experiments for each fibril for both plasma and CSF. […]

The target in series [16] is T4, αSN fibrils. Kind of series: Fibril incubation with CSF, quantitative MS/MS of bound proteins. The class given is binding. Conditions: 4:1 w/w CSF protein:fibril.
Series [17] deals with T5, Ab1 fibrils. Description: Fibril incubation with plasma, quantitative MS/MS of bound proteins. In kind it is binding, human. Conditions: 50:1 w/w plasma protein:fibril. In outline: (§5)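 Fibrils (20 μg) incubated 1 h at room temperature with plasma (500 μg) or CSF (40 μg) protein in PBS/5 mM EDTA; pellets washed, guanidinium-dissolved, trypsin-digested. Label-free LC-MS/MS XIC of top three peptides, normalized to total ion intensity, averaged over nine runs; fibril-free controls.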

The test system of series [18] is T7, FAS4-AD aggregates.
T7 construct: aggregates of a mutated version of the FAS1-4 domain of TGFBIp
Description: Fibril incubation with CSF, quantitative MS/MS of bound proteins. Details: key to Identification status of CSF protein bound: FAS4-AD: *: Identified, but not quantified; —: Not identified in any of the samples. The class given is binding, human. The settings on record: symbol cells.

For series [19], the target named is T4, αSN fibrils. Kind of series: Fibril incubation with plasma, quantitative MS/MS of bound proteins. The class given is binding. The settings on record: 50:1 w/w plasma protein:fibril. In outline:
as §5

Series [20] has as its system T6, Ab2 fibrils. The series is described as above. In kind it is binding, human. Conditions: 50:1 w/w plasma protein:fibril.
Series [21] relates to T7, FAS4-AD aggregates. The series is described as above. In kind it is binding, human. The settings on record: 50:1 w/w plasma protein:fibril. In outline:
as §5

Series [22] addresses T1, glucagon fibrils. Kind of series: Fibril incubation with CSF, quantitative MS/MS of bound proteins. Conditions: 4:1 w/w CSF protein:fibril. The class given is binding.
Series [23] has as its target T1, glucagon fibrils. Kind of series: Fibril incubation with plasma, quantitative MS/MS of bound proteins. The settings on record: 50:1 w/w plasma protein:fibril. In kind it is binding.
Setting [24] is: 7.5 μg fibril material, two-site binding model.

T1 sequence (P01275 53-81 limits assumed): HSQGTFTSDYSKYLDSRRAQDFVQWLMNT
T3 sequence (P01009 383-418 limits assumed): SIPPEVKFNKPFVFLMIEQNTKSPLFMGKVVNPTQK
Sequence of Ab1 fibrils (Aβ(1–40)) (P05067 672-711): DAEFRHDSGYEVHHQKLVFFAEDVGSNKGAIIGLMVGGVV
Sequence of Ab2 fibrils (Aβ(1–40)) (P05067 672-711): as above

Broadly, the Kd is the free concentration of one partner at which half of the binding sites on the other are occupied at equilibrium, for simple one-to-one binding. For `Cc1ccc2c(c1)sc(-c1ccc(N(C)C)cc1)[n+]2C` [ThT, Thioflavin T], the “maximum ThT fluorescence intensity (Imax)” value at glucagon fibrils [1] is reported as 1,000 rfu; on C-36 fibrils [5] (7.5 μg fibril material, single-site binding model), 12,500 rfu. Moreover, the Kd at glucagon fibrils [1] (read-out: dissociation constant (kd)) was 1450 nM; at C-36 fibrils [5] (7.5 μg fibril material, single-site binding model, read-out: dissociation constant (kd)), 630 nM. For the same compound, in the series with FAS4 AD aggregates, the ThT fluorescence result is “did not detect any fluorescence”. Besides, the “Ligand bound (binding capacity)” value on C-36 fibrils [2] was 10 nmol/mg fibril; at αSN fibrils [3], 42 nmol/mg fibril; at glucagon fibrils [4], 18 nmol/mg fibril; in the series with Ab1 fibrils [8], 42 nmol/mg fibril; in the series with Ab2 fibrils [9] it was 35 nmol/mg fibril. Besides, the ThT fluorescence level on C-36 fibrils [5] (titration experiment) is on record as 12,500 RFU; on Ab1 fibrils (Aβ(1–40)) (titration experiment), 2–5,000 RFU; at αSN fibrils [6], 2–5,000 RFU; on Ab2 fibrils (Aβ(1–40)) (titration experiment), 2–5,000 RFU. Further, the Imax1 at Ab1 fibrils (Aβ(1–40)) (setting [24]) and on Ab2 fibrils (Aβ(1–40)) (setting [24]) was 23,000 rfu throughout. Also, the results for the Imax2 on Ab1 fibrils (Aβ(1–40)) (setting [24]) and at Ab2 fibrils (Aβ(1–40)) (setting [24]) were −22,000 rfu and −21,250 rfu, respectively. Besides, in series [7], the ThT signal result is listed as “did not result in any ThT signal”.
Take “Vitronectin: plasma/CSF protein bound to fibrils”: the “Relative composition of CSF proteins bound: Ab1” value with Ab1 fibrils [10] is reported as 1.1 ± 0.0 % of total protein. The “Relative composition of CSF proteins bound: Ab2” value with Ab2 fibrils [11] was 1.3 ± 0.3 % of total protein. Also, the “contribution to the fibril interactomes” value is 3.7–17.1% in [12] and 0.2–3.6% in [15]. The “Relative composition of plasma proteins bound: C-36” value in the series with C-36 fibrils [13] was 4.9 ± 0.5 % of total protein. Moreover, the “Relative composition of CSF proteins bound: C-36” value with C-36 fibrils [14] is on record as 0.8 ± 0.1 % of total protein. In the series with αSN fibrils [16], the “Relative composition of CSF proteins bound: αSN” value is 3.6 ± 0.2 % of total protein. Besides, in the series with Ab1 fibrils [17], the “Relative composition of plasma proteins bound: Ab1” value is listed as 17.1 ± 1.9 % of total protein. For the same compound, the “Identification status of CSF protein bound: FAS4-AD” value in the series with FAS4-AD aggregates [18] is given as “—”. Besides, in the series with αSN fibrils [19], the “Relative composition of plasma proteins bound: αSN” value is given as 9.3 ± 2.2 % of total protein. In addition, the “Relative composition of plasma proteins bound: Ab2” value with Ab2 fibrils [20] is listed as 12.1 ± 2.1 % of total protein. Moreover, the “Relative composition of plasma proteins bound: FAS4-AD” value with FAS4-AD aggregates [21] is 1.6 ± 0.4 % of total protein. Further, the “Relative composition of CSF proteins bound: Glucagon” value with glucagon fibrils [22] is listed as 0.2 ± 0.1 % of total protein. Besides, the “Relative composition of plasma proteins bound: Glucagon” value with glucagon fibrils [23] is recorded as 3.7 ± 0.1 % of total protein.

Values taken from article PMC6405930, “Conservation of the Amyloid Interactome Across Diverse Fibrillar Structures” (Scientific Reports, 2019).
